Reference: US20020187484A1, “Molecular break lights probes for detecting nucleotide cleavage” (priority 2000, published 2002)
Where two headings read alike, the source gives them in different places. Marks after values point to notes of the source that are not given here.

Legend:
break light A [1] = assay: Molecular break light assay: cleavage of break light A by enediynes and Fe^+2-dependent agents; type: biochemical; details: for agent concentration at maximum turnover: [A] = 32 nM; for Vmax: 37° C.; for effect of ascorbate on DNA-cleavage: addition of ascorbate; for agent concentration at maximum turnover (Vapp/[cleavage agent]): [molecular break light A] = 3.2 nM
Method: Samples were analyzed with a FluoroMax-2 spectrofluorometer equipped with DataMax for Windows (Instruments S. A., Inc.; Edison, N.J.) and the temperature controlled (30° C., unless otherwise noted) by a Haake Circulator DC10. All samples were filtered prior to analysis and analyzed via a timebase scan (λex=485 nm, λEm=517 nm) in a Suprasil quartz cuvette (10 mm path) fitted with a magnetic stirring bar in a total volume of 2 mL. […] Total cleavage of the labeled oligonucleotide, confirmed by polyacrylamide gel electrophoresis (PAGE), was defined as the maximum fluorescence emission possible under saturated cleaving conditions. Emission units were converted to the amount of labeled oligonucleotide used within a procedure, thereby equating labeled oligonucleotide degradation as a function of the emission of fluorescence.
Enediyne antibiotics calicheamicin and esperamicin at varying concentrations (0.31, 0.78, 1.6, 3.2, 15.9, and 31.7 nM) were incubated in 40 mM Tris-HCl (pH 7.5) with 3.2 nM of the calicheamicin-specific labeled molecular break light oligonucleotide (A). DNA cleavage was initiated with the addition of 1 μL 100 mM dithiothreitol (“DTT”) to produce a final concentration of 50 μM DTT, and the reaction was monitored over 10 minutes via spectrofluorometry.
Pseudo-first order kinetic parameters were utilized to determine the initial velocities at each given enediyne concentration. Specifically, graphical representation of the data was based upon equation 2 where [A]t is the concentration of cleaved oligonucleotide at a given time (t) and [A]0 is the initial concentration of oligonucleotide in the assay. Least squares analysis gave the slope (k), or rate, which was converted to V by the relationship in equation 3. The maximum velocity achieved (Vmax) was then selected from the range of concentrations examined.
ln[A]t=−kt+ln[A]0 [Equation 2]
Bleomycin, an Fe^+2-dependent nucleic acid cleavage agent, is a natural metabolite from Streptomyces verticillus. Blenoxane (a mixture containing approximately 70% bleomycin A2 and 30% bleomycin B2) was dissolved in water & optically standardized (ε291=1.7×10^4M^−1 cm^−1). Bleomycin mediated cleavage was adapted from procedures outlined by Giloni et al. J. Biol. Chem. 256: 8608-8615 (1981). Several different concentrations of bleomycin (200 nM, 100 nM, 50 nM, 25 nM, 12.5 nM, 5 nM, and 2.5 nM) were incubated in 50 mM sodium phosphate, 2.5 mM ascorbate, at pH 7.5 and 37° C. with 3.2 nM of the molecular break light A.
The reaction was initiated by the addition of 65 mM Fe(II) and monitored over 5 minutes. This protocol was repeated with the addition of 5 mM sodium ascorbate to the above conditions. Pseudo-first order kinetic parameters were utilized to determine the initial velocities at each given bleomycin concentration as previously described.
In a first assay, 3.2 nM break light A was incubated in 40 mM Tris HCl and 2.5 mM ascorbate at 37° C. and pH 7.5. Cleavage was initiated by addition of MPE/Fe(II) in a 1.2:1 molar ratio to various concentrations. Final Fe(II) concentrations were 8 μM, 4 μM, 2 μM, 1 μM, 500 nM, 250 nM, and 125 nM.
In a second assay, 32 nM molecular break light A was incubated in 40 mM Tris and 2.5 mM sodium ascorbate at pH 7.5 and 37° C. Cleavage was initiated by addition of MPE/Fe(II) in a 1.2:1 molar ratio to various concentrations. Final Fe(II) concentrations were 50 nM, 125 nM, 250 nM, 500 nM, 1 μM, and 2 μM.
In a third assay, 32 nM break light A (calicheamicin-specific molecular break light oligonucleotide) was incubated in 40 mM Tris and 2.5 mM sodium ascorbate at pH 7.5 and 37° C.

[2] = test system: dual fluorophoric-labeled dsDNA; details: 0.8 nM dual fluorophoric-labeled dsDNA, FCS spectrometer; cited from earlier work
break light B = assay: BamHI / DNaseI digestion of break light B (proof of principle); type: biochemical
Method: (§1) The cleavage of molecular break light probes A and B by BamHI was investigated. In a first assay, break light A and break light B were each incubated with 100 U BamHI. As a control, break light B was also incubated without enzyme. The incubations occurred at 37° C. in a solution containing 10 mM TrisHCl, 50 mM NaCl, 10 mM MgCl2, and 1 mM DTT at pH 7.9.
(§2) In a second assay, break light A and break light B were each incubated with 10 U DnaseI. As a control, break light A was also incubated without enzyme. The incubations occurred at 37° C. in a solution containing 40 mM Tris HCl, 10 mM MgSO4, and 1 mM CaCl2 at pH 8.0.

molecular break light B = assay: BamHI steady state kinetics and sensitivity limits with break light B; type: biochemical
Method: Samples were analyzed with a FluoroMax-2 spectrofluorometer equipped with DataMax for Windows (Instruments S. A., Inc.; Edison, N.J.) and the temperature controlled (30° C., unless otherwise noted) by a Haake Circulator DC10. All samples were filtered prior to analysis and analyzed via a timebase scan (λex=485 nm, λEm=517 nm) in a Suprasil quartz cuvette (10 mm path) fitted with a magnetic stirring bar in a total volume of 2 mL. Reactions were equilibrated to the incubation temperature before initiation of DNA cleavage as was evident by a steady background emission over 10 min. Total cleavage of the labeled oligonucleotide, confirmed by polyacrylamide gel electrophoresis (PAGE), was defined as the maximum fluorescence emission possible under saturated cleaving conditions. Emission units were converted to the amount of labeled oligonucleotide used within a procedure, thereby equating labeled oligonucleotide degradation as a function of the emission of fluorescence.
Determination of BamHI (10 units/μL) specific cleavage was performed in 6 mM TrisHCl, 100 mM NaCl, 6 mM MgCl2, and 1 mM DTT, at 37° C. and pH 7.5 with 3.2 nM of molecular break light B (FIG. 2B) and varying amounts of BamHI-specific oligonucleotide lacking the fluorophore and quenching moieties. Total substrate concentrations (including break light) were as follows: 389 nM, 196 nM, 81 nM, 42 nM, 11 nM, 7.5 nM, and 3.4 nM.
The reaction was initiated with 10 U BamHI enzyme and monitored via spectrofluorometry over a time course of fifteen minutes. The initial rate of DNA cleavage was determined from data within the first 100 seconds of initiation which was then adjusted according to equation 1. These adjusted values were utilized for the reciprocal plot from which the Michaelis-Menten kinetic parameters were determined.
Vact=Vobs([Sact]/[S*]) [Equation 1]
The steady-state kinetic parameters for a commercially available BamHI were determined. The dependence of BamHI hydrolysis on substrate concentration was investigated using mixtures of a fixed amount of molecular break light B and varying amounts of an analogous non-labeled oligonucleotide (lacking both FAM and DABCYL) over a wide substrate concentration range. The apparent competitive inhibition observed due to phenomenon of “carrier dilution” was corrected to give the appropriate kinetic parameters. See, e.g., Roy, et al. (1994).
The observed velocity (Vapp) is related to the actual velocity (Vact) by equation [I] where [Sact] and [S*] are the total substrate concentration and B concentration, respectively. The reciprocal plot after correction for this “carrier dilution” phenomenon is illustrated in FIG. 4b.
A recent fluorescence correlation spectroscopy (FCS) assay for the restriction endonuclease EcoRI using 0.8 nM of dual fluorophoric-labeled dsDNA and a highly specialized FCS spectrometer, reported a detection limit of 1.6 pM EcoRI. Kettling, U., et al. (1998). Under the conditions containing even slightly less oligonucleotide (0.68 nM molecular break light), cleavage was easily detectable to 3.7 pM BamHI. […] This assay was performed undert the same conditions as the other assays in this Example.

[3] = test system: oligonucleotide substrate; details: previously reported values for BamHI; cited from earlier work
break light A [4] = assay: BamHI / DNaseI digestion of break light A (proof of principle); type: biochemical; details: 3.2 nM break light A, 37° C.; 100 U BamHI or 10 U DNaseI
Method: as §1, §2

[5] = [DNA]total = 3.2 nM, MPE as common agent

Row | Molecule | agent concentration at maximum turnover (break light A [1]) | Comparison to EDTA (fold enhancement over EDTA turnover) (break light A [1]; [DNA]total = 32 nM) | Turnover (Vmax/[Agent]) (break light A [1]; [DNA]total = 32 nM) | Vmax (break light A [1]; [DNA]total = 32 nM) | effect of ascorbate on DNA-cleavage (break light A [1]) | Turnover (Vmax/[Agent]) (break light A [1]; [DNA]total = 3.2 nM) | Vmax (break light A [1]; [DNA]total = 3.2 nM) | Comparison to EDTA (fold enhancement over EDTA turnover) (break light A [1]; [5]) | agent concentration at maximum turnover (Vapp/[cleavage agent]) (break light A [1]) | further results
1 | O=C([O-])CN(CCN(CC(=O)[O-])CC(=O)[O-])CC(=O)[O-].[Fe+2].[H+].[H+] [EDTA, Fe^+2-EDTA] | ~1.3 µM | 1.0 fold | 1.5e-06 s⁻¹ | 0.002 ± 0.001^e nM sec^−1 | critical for efficient DNA-cleavage | – | – | – | – | –
2 | EcoRI: restriction endonuclease | – | – | – | – | – | – | – | – | – | detection limit [2]: 1.6 pM
3 | bleomycin | – | – | – | – | did not affect | 0.001 s⁻¹ | 0.009 ± 0.001^d nM sec^−1 | 6.8 × 10^4 fold | 2.5 nM | detection of agent by the assay (sensitivity range) (break light A [1]; 3.2 nM break light A, conditions described): nM range; additional increase of cleavage efficiency over MPE (break light A [1]; from Table 1): 10 fold
4 | esperamicin A1 | – | – | – | – | – | 0.009 s⁻¹ | 0.007 ± 0.001^d nM sec^−1 | 6.1 × 10^5 fold | – | maximum fluorescence upon cleavage, compared with DNaseI (break light A [1]; 3.2 nM break light A, excess DTT): identical to that observed with DNaseI; enhancement of cleavage efficiency over bleomycin (break light A [1]; from Table 1): ~10 fold
5 | methidiumpropyl-Fe^+2-EDTA [Methidiumpropyl-EDTA] | ~0.05 µM | 1.6 × 10^3 fold | 0.002 s⁻¹ | 0.118 ± 0.004^e nM sec^−1 | critical for efficient DNA-cleavage | 2.4e-05 s⁻¹ | 0.003 ± 0.001^d nM sec^−1 | 1.6 × 10^3 fold | 125 nM | enhancement of cleavage efficiency in comparison to Fe^+2-EDTA (break light A [1]; from Table 1): ~10^3 fold
6 | BamHI: restriction endonuclease, commercially available (protein, UniProt P23940 1-213, looked up) Type II restriction enzyme …: MEVEKEFITDEAKELLSKDKLIQQAYNEVKTSICSPIWPATSKTFTINNTEKNCNGVVPIKELCYTLLEDTYNWYREKPLDILKLEKKKGGPIDVYKEFIENSELKRVGMEFETGNISSAHRSMNKLLLGLKHGEIDLAIILMPIKQLAYYLTDRVTNFEELEPYFELTEGQPFIFIGFNAEAYNSNVPLIPKGSDGMSKRSIKKWKDKVENK | – | – | – | – | – | – | – | – | – | change in fluorescence intensity over time (break light B; 3.2 nM break light B, 37° C., 100 U BamHI or 10 U DNaseI): increase of fluorescence; fluorescence maximum intensity upon complete cleavage, relative to DNaseI (break light B; same concentration of molecular break light): 75%; detection limit (molecular break light B): 0.12 pM; detection limit (cleavage easily detectable to) (molecular break light B; 0.68 nM molecular break light): 3.7 pM; Vmax (molecular break light B; 10 U BamHI, 3.2 nM break light B plus non-labeled oligonucleotide, 37° C., pH 7.5): 0.024 ± 0.001 nM/s; Km (molecular break light B; 10 U BamHI, break light B plus non-labeled oligonucleotide, 37° C., pH 7.5): 8.9 ± 0.5 nM; Comparison to EDTA (fold enhancement over EDTA turnover) (molecular break light B; BamHI, break light B): 4.8 × 10^5 fold; Turnover (Vmax/[Agent]; also known as kcat) (molecular break light B; BamHI, break light B): 0.007^c sec^−1; detection limit (molecular break light B; molecular break light concentration 34 nM): 0.12 pM; Km [3]: 0.4 nM; V max, previously reported [3]: 0.009 nM/s; change in fluorescence intensity over time (break light A [4]): no change
